The target of one experiment is T1, Histamine H1 receptor (Cavia porcellus, UniProt P31389).
T1 construct: from tissue
As to the kind of experiment: Histamine H1 receptor binding study. Conditions: test concentration typically 10 μM; read-out: H1 Inh. [%]. The source says: Table 5 summarises the inhibitory values on the above receptors:

For experiment [1], the system named is "Na+ channel site 2"-binding site. Briefly: Binding to the Na+ channel site 2 binding site ([3H]-BTX). To be noted: test concentration typically 10 μM. The procedure: (§1) The tests were typically carried out at a test concentration of 10 μM.
In another experiment the test system is AMPA receptor. As to the kind of experiment: Inhibition of the cainate-induced signal at the AMPA receptor, electrophysiology on neuronal cells (Patch-Clamp-Method). The format is cell-based. Conditions: test concentration of 100 μM. How it is done: The tests were carried out at a test concentration of 100 μM.
A general note: Patch clamp records ionic current or voltage across a cell membrane.

Another experiment has as its system Sigma receptor. As to the kind of experiment: Sigma receptor binding study. To be noted: test concentration typically 10 μM. The procedure: as §1

T1 sequence (P31389 whole entry): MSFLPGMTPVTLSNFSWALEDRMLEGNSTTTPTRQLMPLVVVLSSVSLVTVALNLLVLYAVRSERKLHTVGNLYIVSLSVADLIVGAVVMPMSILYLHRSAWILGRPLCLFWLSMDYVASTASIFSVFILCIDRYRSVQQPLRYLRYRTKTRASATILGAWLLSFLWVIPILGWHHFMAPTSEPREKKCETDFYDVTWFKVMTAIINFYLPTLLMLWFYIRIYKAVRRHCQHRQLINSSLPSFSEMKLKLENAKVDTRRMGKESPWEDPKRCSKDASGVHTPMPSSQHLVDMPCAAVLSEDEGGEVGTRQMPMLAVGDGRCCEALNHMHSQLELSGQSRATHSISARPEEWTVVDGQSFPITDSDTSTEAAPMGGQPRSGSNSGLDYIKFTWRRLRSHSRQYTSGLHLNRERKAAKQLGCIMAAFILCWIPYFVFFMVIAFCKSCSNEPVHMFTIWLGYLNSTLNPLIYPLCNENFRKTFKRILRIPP

Regarding `Cc1ccc(-c2noc(-c3ccccc3OCCN(C)C)n2)cc1` [Example 17, 5-{2-[2-(N,N-Dimethylamino)-ethyl]oxy-phenyl}-3-(4-methyl-phenyl)-1,2,4-oxadiazole], the inhibition at 10 µM at Histamine H1 receptor was 78%. For the same molecule, the “Na+-channel Inh. [%] ([3H]-BTX)” value in experiment [1] amounted to 80%. In addition, in the experiment on AMPA receptor, the “AMPA Inh. [%] (inhibiting the cainate-induced signal at the AMPA receptor)” value was determined as 97%. Besides, the “Sigma Inh. [%]” value with Sigma receptor amounted to 65%.
Taken in the same sequence, the figures for `CN(C)CCOc1ccccc1-c1nc(-c2ccccn2)no1` [Example 43, 5-{2-[2-(N,N-Dimethylamino)-ethyl]oxy-phenyl}-3-(2-pyridyl)-1,2,4-oxadiazole] were 86%, 72%, 77% and 0%.
Turning to `CN(C)CCOc1ccccc1-c1nc(-c2ccc(F)cc2)no1` [Example 45, 5-{2-[2-(N,N-Dimethylamino)-ethyl]oxy-phenyl}-3-(4-fluoro-phenyl)-1,2,4-oxadiazole], the inhibition at 10 µM on Histamine H1 receptor amounted to 98%. Also, the “Na+-channel Inh. [%] ([3H]-BTX)” value in experiment [1] is recorded as 79%. In the experiment on AMPA receptor, the “AMPA Inh. [%] (inhibiting the cainate-induced signal at the AMPA receptor)” value amounted to 64%. In the experiment with Sigma receptor, the “Sigma Inh. [%]” value is given as 85%.
With `CN(C)CCOc1ccccc1-c1nc(-c2ccsc2)no1` [Example 54, 5-{2-[2-(N,N-Dimethylamino)-ethyl]oxy-phenyl}-3-(3-thienyl)-1,2,4-oxadiazole], the inhibition at 10 µM at Histamine H1 receptor was found to be 95%. Besides, the “Na+-channel Inh. [%] ([3H]-BTX)” value in experiment [1] was found to be 62%. Further, the “Sigma Inh. [%]” value in the experiment on Sigma receptor is on record as 68%.
Turning to `CN(C)CCOc1ccccc1-c1nc(-c2ccccc2Br)no1` [Example 64, 5-{2-[2-(N,N-Dimethylamino)-ethyl]oxy-phenyl}-3-(2-bromo-phenyl)-1,2,4-oxadiazole], the inhibition at 10 µM on Histamine H1 receptor was 88%. Moreover, the “Na+-channel Inh. [%] ([3H]-BTX)” value in experiment [1] was 99%. The “AMPA Inh. [%] (inhibiting the cainate-induced signal at the AMPA receptor)” value in the experiment on AMPA receptor is reported as 65%. Further, in the experiment on Sigma receptor, the “Sigma Inh. [%]” value is reported as 76%.
The matching figures for `CNCCOc1ccccc1-c1nc(-c2ccccc2)no1` [Example 22, 5-{2-[2-(N-methylamino)ethyl]-oxy-phenyl}-3-phenyl-1,2,4-oxadiazole]: 64%, 94%, 94% and 78%.
The matching figures for `CN(C)CCOc1ccccc1-c1nc(-c2cccc(C(F)(F)F)c2)no1` [Example 44, 5-{2-[2-(N,N-Dimethylamino)-ethyl]oxy-phenyl}-3-(3-rifluoromethylphenyl)-1,2,4-oxadiazole]: 74%, 89%, 62% and 93%.
Taken in the same sequence, the figures for `CN(C)CCOc1ccccc1-c1nc(-c2cccc(Cl)c2)no1` [Example 59, 5-{2-[2-(N,N-Dimethylamino)-ethyl]oxy-phenyl}-3-(3-chlorophenyl)-1,2,4-oxadiazole] were 84%, 70%, 54% and 82%.
Turning to `CN(C)CCOc1ccccc1-c1nc(-c2ccco2)no1` [Example 57, 5-{2-[2-(N,N-Dimethylamino)-ethyl]oxy-phenyl}-3-(2-furyl)-1,2,4-oxadiazole], at Histamine H1 receptor, the inhibition at 10 µM was found to be 90%. Besides, in experiment [1], the “Na+-channel Inh. [%] ([3H]-BTX)” value stood at 54%. For the same molecule, in the experiment with AMPA receptor, the “AMPA Inh. [%] (inhibiting the cainate-induced signal at the AMPA receptor)” value is listed as 51%. The “Sigma Inh. [%]” value in the experiment on Sigma receptor came out at 49%.
Taken in the same sequence, the figures for `CCNCCOc1ccccc1-c1nc(-c2ccccc2)no1` [Example 23, 5-{2-[2-(N-ethylamino)ethyl]-oxy-phenyl}-3-phenyl-1,2,4-oxadiazole] were 63%, 99%, 93% and 79%.
For `CN(C)CCOc1ccccc1-c1nc(C2CC2)no1` [Example 55, 5-{2-[2-(N,N-Dimethylamino)-ethyl]oxy-phenyl}-3-cyclopropyl-1,2,4-oxadiazole], the “AMPA Inh. [%] (inhibiting the cainate-induced signal at the AMPA receptor)” value in the experiment on AMPA receptor turned out to be 81%.
Consider `COc1ccc(-c2noc(-c3ccccc3OCCN(C)C)n2)cc1` [Example 19, 5-{2-[2-(N,N-Dimethylamino)-ethyl]oxy-phenyl}-3-(4-methoxy-phenyl)-1,2,4-oxadiazole], for which the inhibition at 10 µM on Histamine H1 receptor worked out at 95%. For the same molecule, the “Na+-channel Inh. [%] ([3H]-BTX)” value in experiment [1] was found to be 83%. The “AMPA Inh. [%] (inhibiting the cainate-induced signal at the AMPA receptor)” value with AMPA receptor came to 86%. In addition, the “Sigma Inh. [%]” value in the experiment on Sigma receptor was determined as 74%.
The matching figures for `Cc1ccccc1-c1noc(-c2ccccc2OCCN(C)C)n1` [Example 33]: 87%, 84%, 87% and 77%.
`Cc1cccc(-c2noc(-c3ccccc3OCCN(C)C)n2)c1` [Example 37, 5-{2-[2-(N,N-Dimethylamino)-ethyl]oxy-phenyl}-3-(3-methyl-phenyl)-1,2,4-oxadiazole]: the inhibition at 10 µM at Histamine H1 receptor was 93%. The “Na+-channel Inh. [%] ([3H]-BTX)” value in experiment [1] is on record as 93%. In the experiment with AMPA receptor, the “AMPA Inh. [%] (inhibiting the cainate-induced signal at the AMPA receptor)” value is on record as 93%. The “Sigma Inh. [%]” value with Sigma receptor is listed as 82%.
`CN(C)CCOc1ccccc1-c1nc(-c2cccs2)no1` [Example 42, 5-{2-[2-(N,N-Dimethylamino)-ethyl]oxy-phenyl}-3-(2-thienyl)-1,2,4-oxadiazole]: the inhibition at 10 µM at Histamine H1 receptor came out at 94%. In experiment [1], the “Na+-channel Inh. [%] ([3H]-BTX)” value was 89%. The “AMPA Inh. [%] (inhibiting the cainate-induced signal at the AMPA receptor)” value with AMPA receptor was found to be 79%. Also, in the experiment on Sigma receptor, the “Sigma Inh. [%]” value was found to be 57%.
Turning to `CC(C)NCCOc1ccccc1-c1nc(-c2ccccc2)no1` [Example 21, 5-{2-[2-(N-Isopropylamino)ethyl]-oxy-phenyl}-3-phenyl-1,2,4-oxadiazole], the inhibition at 10 µM at Histamine H1 receptor amounted to 75%. For the same molecule, in experiment [1], the “Na+-channel Inh. [%] ([3H]-BTX)” value turned out to be 100%. In addition, the “AMPA Inh. [%] (inhibiting the cainate-induced signal at the AMPA receptor)” value in the experiment with AMPA receptor is 98%. In the experiment with Sigma receptor, the “Sigma Inh. [%]” value was 76%.
Taken in the same sequence, the figures for `c1ccc(CNCCOc2ccccc2-c2nc(-c3ccccc3)no2)cc1` [Example 20, 5-{2-[2-(N-benzylamino)ethyl]-oxy-phenyl}-3-phenyl-1,2,4-oxadiazole] were 19%, 100%, 90% and 84%.
Turning to `CN(C)CCOc1ccccc1-c1nc(-c2ccc(N)cc2)no1` [Example 47, 5-{2-[2-(N,N-Dimethylamino)-ethyl]oxy-phenyl}-3-(4-amino-phenyl)-1,2,4-oxadiazole], the inhibition at 10 µM on Histamine H1 receptor came to 82%. Besides, in experiment [1], the “Na+-channel Inh. [%] ([3H]-BTX)” value is recorded as 74%. In addition, the “AMPA Inh. [%] (inhibiting the cainate-induced signal at the AMPA receptor)” value in the experiment on AMPA receptor worked out at 59%. For the same molecule, the “Sigma Inh. [%]” value with Sigma receptor amounted to 56%.
The matching figures for `c1ccc(-c2noc(-c3ccccc3OCCN3CCCCC3)n2)cc1` [Example 14, 5-{2-[2-(N-Piperidinyl)ethyl]oxy-phenyl}-3-phenyl-1,2,4-oxadiazole]: 87%, 100%, 96% and 93%.
Turning to `CN1CCN(c2ccccc2-c2nc(-c3ccccc3)no2)CC1` [Example 40, 5-[2-(4-methylpiperazin-1yl)-phenyl]-3-phenyl-1,2,4-oxadiazole], the inhibition at 10 µM on Histamine H1 receptor amounted to 99%. Further, the “Na+-channel Inh. [%] ([3H]-BTX)” value in experiment [1] was found to be 88%. The “AMPA Inh. [%] (inhibiting the cainate-induced signal at the AMPA receptor)” value with AMPA receptor was 37%. Further, the “Sigma Inh. [%]” value with Sigma receptor was found to be 76%.
`c1ccc(-c2noc(-c3ccccc3OCCN3CCCC3)n2)cc1` [Example 13, 5-{2-[2-(N-Pyrrolidinyl)ethyl]oxy-phenyl}-3-phenyl-1,2,4-oxadiazole]: the inhibition at 10 µM on Histamine H1 receptor was 91%. In addition, the “Na+-channel Inh. [%] ([3H]-BTX)” value in experiment [1] worked out at 95%. Also, the “AMPA Inh. [%] (inhibiting the cainate-induced signal at the AMPA receptor)” value with AMPA receptor is 96%. Also, the “Sigma Inh. [%]” value in the experiment with Sigma receptor amounted to 83%.
Taken in the same sequence, the figures for `CCN(CC)CCOc1ccccc1-c1nc(-c2ccccc2)no1` [Example 12, 5-{2-[2-(N,N-Diethylamino)ethyl]-oxy-phenyl}-3-phenyl-1,2,4-oxadiazole] were 87%, 90%, 85% and 68%.
With `CN(C)CCOc1ccccc1-c1nc(-c2cccc(Br)c2)no1` [Example 48, 5-{2-[2-(N,N-Dimethylamino)-ethyl]oxy-phenyl}-3-(3-bromophenyl)-1,2,4-oxadiazole], the inhibition at 10 µM on Histamine H1 receptor was 78%. For the same molecule, in experiment [1], the “Na+-channel Inh. [%] ([3H]-BTX)” value is listed as 85%. Further, the “AMPA Inh. [%] (inhibiting the cainate-induced signal at the AMPA receptor)” value in the experiment on AMPA receptor was 85%. Moreover, the “Sigma Inh. [%]” value in the experiment on Sigma receptor was 74%.
For the molecule `CN(C)CCOc1ccccc1-c1nc(Cc2ccccc2)no1` [Example 31, 5-{2-[2-(N,N-Dimethylamino)-ethyl]oxy-phenyl}-3-benzyl-1,2,4-oxadiazole], the inhibition at 10 µM on Histamine H1 receptor was found to be 94%. Also, the “Na+-channel Inh. [%] ([3H]-BTX)” value in experiment [1] is 82%. In the experiment with AMPA receptor, the “AMPA Inh. [%] (inhibiting the cainate-induced signal at the AMPA receptor)” value is recorded as 23%. The “Sigma Inh. [%]” value in the experiment with Sigma receptor turned out to be 77%.
The matching figures for `Cc1ccc(-c2nc(-c3ccccc3)no2)c(OCCN(C)C)c1` [Example 67, 5-{2-[2-(N,N-Dimethylamino)-ethyl]oxy4-methyl-phenyl}-3-phenyl-1,2,4-oxadiazole]: 90%, 92%, 28% and 54%.

The values above are taken from patent US6277872A, “Oxadiazoles, processes for their preparation and their use as medicaments” (Boehringer Ingelheim KG, priority 1996, dated 2001).
